According to ChEMBL document CHEMBL1157822, “Synthesis and SAR of novel isoquinoline CXCR4 antagonists with potent anti-HIV activity” (Bioorg Med Chem Lett, 2010):
Activity calls are given as the source filed them. The rule behind the calls is not given here.

Legend:
[1] = test system: Human immunodeficiency virus 1; experiment: Antiviral activity against HIV1 3B infected in human HOS cells expressing human CXCR4/CCR5/CD4/pHIV-LTR luciferase assessed as inhibition of viral infection to cells; format: functional, organism-based; settings: Human immunodeficiency virus 1, 3B
[2] = Cytotoxicity against human HOS cells expressing human CXCR4/CCR5/CD4/pHIV-LTR luciferase; format: cell-based
[3] = Oral bioavailability in rat at 3 mg/kg; format: ADME, organism-based; settings: in vivo
[4] = Half life in rat at 1 mg/kg, iv; format: ADME, organism-based; set-up: dose 1 mg/kg, route intravenous; settings: in vivo
[5] = Volume of distribution in rat at 1 mg/kg, iv; format: ADME, organism-based; set-up: dose 1 mg/kg, route intravenous; settings: in vivo
[6] = Clearance in rat at 1 mg/kg, iv; format: ADME, organism-based; set-up: dose 1 mg/kg, route intravenous; settings: in vivo
[7] = biological target: T1, C-X-C chemokine receptor type 4 (Homo sapiens, UniProt P61073); experiment: Binding affinity to human CXCR4 expressed in HEK293 cells; format: cell-based
T1 sequence (P61073 whole entry): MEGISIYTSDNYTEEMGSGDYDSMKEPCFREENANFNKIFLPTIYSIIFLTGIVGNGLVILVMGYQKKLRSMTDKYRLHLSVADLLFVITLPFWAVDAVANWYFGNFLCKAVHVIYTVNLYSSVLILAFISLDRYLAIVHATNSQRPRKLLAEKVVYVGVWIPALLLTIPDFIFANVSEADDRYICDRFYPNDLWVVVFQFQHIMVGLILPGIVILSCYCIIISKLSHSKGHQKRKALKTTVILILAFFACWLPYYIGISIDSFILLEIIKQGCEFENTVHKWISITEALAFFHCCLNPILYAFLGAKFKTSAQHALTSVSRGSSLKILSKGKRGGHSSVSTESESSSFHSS

[8] = biological target: T1, C-X-C chemokine receptor type 4; experiment: Antagonist activity at human CXCR4 expressed in HEK293 cells; format: functional, cell-based

IC50 [1] [nM] | bioavailability [3] [%] | half-life [4] [h] | Vd [5] [L/kg] | clearance [6] [mL/min/kg] | IC50 [7] [nM] | Activity [8] | SMILES | CC50 [2] [nM]
44 |  |  |  |  |  |  | CN1CCC[C@H]1C(=O)NCc1c(CN(C)[C@H]2CCCc3cccnc32)ncc2ccccc12 | 540
20 | 0 | 12 | 9 | 16 |  |  | CN(Cc1ncc2ccccc2c1CNC(=N)N)[C@H]1CCCc2cccnc21 | 9000
11 |  |  |  |  |  |  | NCCCCN(Cc1nccc2ccccc12)C1CCCc2cccnc21 (racemic) | 8200
12 |  |  |  |  |  |  | CN1CCC[C@@H]1C(=O)NCc1c(CN(C)[C@H]2CCCc3cccnc32)ncc2ccccc12 | 690
41 |  |  |  |  |  |  | CN(Cc1ncc2ccccc2c1CNS(C)(=O)=O)[C@H]1CCCc2cccnc21 | 2000
42 |  |  |  |  |  |  | NCCCCN(Cc1cn2ccccc2n1)C1CCCc2cccnc21 (racemic) | > 20000
12 |  |  |  |  |  |  | NCCCCN(Cc1cc2ccccc2cn1)C1CCCc2cccnc21 (racemic) | 13000
340 |  |  |  |  |  |  | NCCCCN(Cc1nccs1)C1CCCc2cccnc21 (racemic) | 9700
17 |  |  |  |  |  |  | CN(Cc1ncc2ccccc2c1CCCNC(=N)N)[C@H]1CCCc2cccnc21 | 6500
70 |  |  |  |  |  |  | NCCCCN(Cc1ccccn1)C1CCCc2cccnc21 (racemic) | 11000
12 | 10 | 1.5 | 1.5 | 11 | 16 | Active | CN(C)CC(=O)NCc1c(CN(C)[C@H]2CCCc3cccnc32)ncc2ccccc12 | 480
120 |  |  |  |  |  |  | Cn1ccnc1CN(CCCCN)C1CCCc2cccnc21 (racemic) | > 20000
48 |  |  |  |  |  |  | CN(C)Cc1c(CN(C)[C@H]2CCCc3cccnc32)ncc2ccccc12 | 5900
> 20000 |  |  |  |  |  |  | Cn1cncc1CN(CCCCN)C1CCCc2cccnc21 (racemic) | > 20000
> 20000 |  |  |  |  |  |  | NCCCCN(Cc1cccnc1)C1CCCc2cccnc21 (racemic) | > 20000
200 |  |  |  |  |  |  | NCCCCN(Cc1nc2ccccc2s1)C1CCCc2cccnc21 (racemic) | 13000
5 | 6 | 2.9 | 2.9 | 6.1 | 3.4 | Active | CN(C)CCCc1c(CN(C)[C@H]2CCCc3cccnc32)ncc2ccccc12 | 650
23 |  |  |  |  |  | Active | NCCCCN(Cc1nc2ccccc2[nH]1)C1CCCc2cccnc21 (racemic) | 13000
72 |  |  |  |  |  |  | CN(Cc1ncc2ccccc2c1C#N)[C@H]1CCCc2cccnc21 | 1300
21 |  |  |  |  |  |  | CN(Cc1ncc2ccccc2c1CCC#N)[C@H]1CCCc2cccnc21 | 950
12 |  |  |  |  |  |  | CN(Cc1ncc2ccccc2c1CCCN)[C@H]1CCCc2cccnc21 | 1000
34 |  |  |  |  |  |  | NCCCCN(Cc1ccc2ccccc2n1)C1CCCc2cccnc21 (racemic) | 12000
16 | 4 | 5.8 | 1.4 | 9.5 |  |  | CN(Cc1ncc2ccccc2c1CCCNS(C)(=O)=O)[C@H]1CCCc2cccnc21 | 690
160 |  |  |  |  |  |  | CN(Cc1cc2ccccc2cn1)[C@H]1CCCc2cccnc21 | 650
27 |  |  |  |  |  |  | CN(Cc1ncc2ccccc2c1CN)[C@H]1CCCc2cccnc21 | 3100
38 | 20 | 3.1 | 1.7 | 16 |  |  | CN(C)C(=O)NCCCc1c(CN(C)[C@H]2CCCc3cccnc32)ncc2ccccc12 | 750
